# T1: Cytochrome P450 2C8 (Homo sapiens, UniProt P10632)
# T1 sequence (P10632 whole entry): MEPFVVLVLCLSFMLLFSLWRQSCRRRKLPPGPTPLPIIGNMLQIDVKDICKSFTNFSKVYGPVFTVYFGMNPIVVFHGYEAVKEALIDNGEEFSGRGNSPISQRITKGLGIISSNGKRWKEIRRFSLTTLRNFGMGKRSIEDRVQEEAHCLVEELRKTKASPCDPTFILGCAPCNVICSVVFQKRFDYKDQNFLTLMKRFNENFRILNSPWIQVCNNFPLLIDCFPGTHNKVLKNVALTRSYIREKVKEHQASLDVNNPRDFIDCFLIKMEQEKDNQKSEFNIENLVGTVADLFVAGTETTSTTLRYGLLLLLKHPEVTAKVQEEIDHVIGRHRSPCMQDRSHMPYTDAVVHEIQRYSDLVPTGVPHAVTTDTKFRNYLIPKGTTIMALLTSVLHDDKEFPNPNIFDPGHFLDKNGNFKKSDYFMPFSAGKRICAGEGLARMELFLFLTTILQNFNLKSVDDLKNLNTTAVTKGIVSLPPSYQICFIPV
# T2: Cytochrome P450 2A6 (Homo sapiens, UniProt P11509)
# T2 sequence (P11509 whole entry): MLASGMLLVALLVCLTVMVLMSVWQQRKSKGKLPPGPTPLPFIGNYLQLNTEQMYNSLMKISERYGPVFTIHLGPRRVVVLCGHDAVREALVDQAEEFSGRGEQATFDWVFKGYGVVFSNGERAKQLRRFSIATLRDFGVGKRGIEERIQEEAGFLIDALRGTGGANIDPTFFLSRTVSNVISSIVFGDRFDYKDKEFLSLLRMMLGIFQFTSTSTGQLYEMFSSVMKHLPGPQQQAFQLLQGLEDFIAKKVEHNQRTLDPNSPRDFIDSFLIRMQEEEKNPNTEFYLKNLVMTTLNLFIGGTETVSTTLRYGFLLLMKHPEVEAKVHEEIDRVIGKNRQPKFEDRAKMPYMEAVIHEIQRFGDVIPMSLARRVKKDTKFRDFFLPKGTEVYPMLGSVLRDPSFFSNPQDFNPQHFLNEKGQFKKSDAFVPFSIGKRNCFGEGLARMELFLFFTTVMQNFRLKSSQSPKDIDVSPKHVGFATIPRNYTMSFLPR
# T3: Cytochrome P450 2B6 (Homo sapiens, UniProt P20813)
# T3 sequence (P20813 whole entry): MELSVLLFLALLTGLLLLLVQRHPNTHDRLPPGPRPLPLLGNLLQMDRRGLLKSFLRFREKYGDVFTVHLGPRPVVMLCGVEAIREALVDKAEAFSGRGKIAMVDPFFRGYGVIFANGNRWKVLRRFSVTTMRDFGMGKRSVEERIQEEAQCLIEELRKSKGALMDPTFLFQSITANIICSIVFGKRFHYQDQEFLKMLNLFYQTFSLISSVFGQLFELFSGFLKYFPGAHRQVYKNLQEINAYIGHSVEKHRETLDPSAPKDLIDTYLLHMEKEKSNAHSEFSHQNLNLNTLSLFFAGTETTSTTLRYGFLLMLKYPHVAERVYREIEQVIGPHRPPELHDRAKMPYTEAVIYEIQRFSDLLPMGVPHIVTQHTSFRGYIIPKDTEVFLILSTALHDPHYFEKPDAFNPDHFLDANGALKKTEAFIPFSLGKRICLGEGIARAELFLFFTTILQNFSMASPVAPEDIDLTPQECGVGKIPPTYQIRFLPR
# T4: Cytochrome P450 1A2 (Homo sapiens, UniProt P05177)
# T4 sequence (P05177 whole entry): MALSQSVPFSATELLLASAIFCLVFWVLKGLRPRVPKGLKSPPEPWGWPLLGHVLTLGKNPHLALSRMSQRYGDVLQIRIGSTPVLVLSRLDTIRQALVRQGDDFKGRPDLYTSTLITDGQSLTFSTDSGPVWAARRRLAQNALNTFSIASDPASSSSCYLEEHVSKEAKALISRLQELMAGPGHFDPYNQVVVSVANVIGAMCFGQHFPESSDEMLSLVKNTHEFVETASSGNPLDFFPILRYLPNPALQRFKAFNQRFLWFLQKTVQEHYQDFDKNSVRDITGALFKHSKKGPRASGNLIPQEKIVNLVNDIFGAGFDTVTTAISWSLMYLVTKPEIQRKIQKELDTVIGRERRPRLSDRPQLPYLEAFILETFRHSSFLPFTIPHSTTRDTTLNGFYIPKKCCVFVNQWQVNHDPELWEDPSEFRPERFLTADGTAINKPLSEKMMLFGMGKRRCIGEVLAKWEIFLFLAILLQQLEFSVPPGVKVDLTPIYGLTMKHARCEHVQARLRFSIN
# B1: Cytochrome P450 1A2 (Homo sapiens) (protein)
# chain: T4 sequence (P05177 whole entry)
# How the values were obtained:
# Liver microsome [1] = test: Drug metabolism in human liver microsomes assessed as (R)-1-(4-(4-fluoro-2-(hydroxymethyl)-1H-indol-5-yloxy)-5-methylpyrrolo[1,2-f][1,2,4]triazin-6-yloxy)propane-2-sulfonic acid at 2 uM for 60 mins by LC/MS analysis in presence of NADPH; format: ADME
# Liver microsome [2] = test: Drug metabolism in human liver microsomes assessed as (R)-4-fluoro-5-(5-methyl-6-(2-sulfopropoxy)pyrrolo[1,2-f][1,2,4]triazin-4-yloxy)-1H-indole-2-carboxylic acid at 2 uM for 60 mins by LC/MS analysis in presence of NADPH; format: ADME
# Liver microsome [3] = test: Drug metabolism in human liver microsomes assessed as compound oxidation at 2 uM for 60 mins by LC/MS analysis in absence of NADPH; format: ADME; conditions: 1 h
# Liver cytosol [4] = test: Drug metabolism in human liver cytosol assessed as (R)-4-fluoro-5-(5-methyl-6-(2-sulfopropoxy)pyrrolo[1,2-f][1,2,4]triazin-4-yloxy)-1H-indole-2-carboxylic acid formation at 2 uM for 60 mins by LC/MS analysis in presence of PAPS; format: ADME
# Liver cytosol [5] = test: Drug metabolism in human liver cytosol assessed as sulfate conjugate formation at 2 uM for 60 mins in absence of PAPS by LC/MS analysis; format: ADME, tissue-based; conditions: 1 h
# Liver cytosol [6] = test: Drug level in human liver cytosol treated with 2 uM [14C](R)-1-(4-(4-fluoro-2-(hydroxymethyl)-1H-indol-5-yloxy)-5-methylpyrrolo[1,2-f][1,2,4]triazin-6-yloxy)propan-2-ol for 60 mins by LC/MS analysis in presence of PAPS; format: ADME, tissue-based
# Liver microsome [7] = test: Drug level in human liver microsomes treated with 2 uM [14C](R)-1-(4-(4-fluoro-2-methyl-1H-indol-5-yloxy)-5-methylpyrrolo[1,2-f][1,2,4]triazin-6-yloxy)propane-2-sulfonic acid for 60 mins by LC/MS analysis in presence of NADPH; format: ADME
# Liver microsome [8] = test: Drug level in human liver microsomes assessed as compound formation treated with 2 uM [14C]brivanib alaninate for 60 mins by LC/MS analysis in presence of NADPH; format: ADME; conditions: 1 h
# Cytochrome P450 2D6 = Cytochrome P450 2D6 (Homo sapiens, UniProt P10635); test: Activity of human CYP2D6 assessed as compound formation treated with 2 and 20 uM brivanib for 20 mins by LC/MS analysis in presence of NADPH; format: ADME
# Cytochrome P450 3A5 = Cytochrome P450 3A5 (Homo sapiens, UniProt P20815); test: Activity of human CYP3A5 assessed as compound formation treated with 2 and 20 uM brivanib for 20 mins by LC/MS analysis in presence of NADPH; format: ADME
# Cytochrome P450 2C19 = Cytochrome P450 2C19 (Homo sapiens, UniProt P33261); test: Activity of human CYP2C19 assessed as compound formation treated with 2 and 20 uM brivanib for 20 mins by LC/MS analysis in presence of NADPH; format: ADME
# Cytochrome P450 2C8 = biological target: T1, Cytochrome P450 2C8; test: Activity of human CYP2C8 assessed as compound formation treated with 2 and 20 uM brivanib for 20 mins by LC/MS analysis in presence of NADPH; format: ADME
# Cytochrome P450 2A6 = biological target: T2, Cytochrome P450 2A6; test: Activity of human CYP2A6 assessed as compound formation treated with 2 and 20 uM brivanib for 20 mins by LC/MS analysis in presence of NADPH; format: ADME
# Cytochrome P450 2B6 = biological target: T3, Cytochrome P450 2B6; test: Activity of human CYP2B6 assessed as compound formation treated with 2 and 20 uM brivanib for 20 mins by LC/MS analysis in presence of NADPH; format: ADME
# Cytochrome P450 2C9 = Cytochrome P450 2C9 (Homo sapiens, UniProt P11712); test: Activity of human CYP2C9 assessed as compound formation treated with 2 and 20 uM brivanib for 20 mins by LC/MS analysis in presence of NADPH; format: ADME
# Liver microsome [9] = test: Drug level in human liver microsomes treated with 2 and 20 uM brivanib for 30 mins by LC/MS analysis in presence of 2 uM CYP2A6 inhibitor tranylcypromine; format: ADME; conditions: 0.5 h
# Liver microsome [10] = test: Drug level in human liver microsomes treated with 2 and 20 uM brivanib for 30 mins by LC/MS analysis in presence of 50 uM CYP2B6 inhibitor orphenadrine; format: ADME; conditions: 0.5 h
# Liver microsome [11] = test: Drug level in human liver microsomes treated with 2 and 20 uM brivanib for 30 mins by LC/MS analysis in presence of 3 uM CYP2C8 inhibitor montekulast; format: ADME; conditions: 0.5 h
# Cytochrome P450 1A1 = Cytochrome P450 1A1 (Homo sapiens, UniProt P04798); test: Activity of human CYP1A1 assessed as compound formation treated with 2 and 20 uM brivanib for 20 mins by LC/MS analysis in presence of NADPH; format: ADME
# Cytochrome P450 1A2 = biological target: T4, Cytochrome P450 1A2; test: Activity of human CYP1A2 assessed as compound formation treated with 2 and 20 uM brivanib for 20 mins by LC/MS analysis in presence of NADPH; format: ADME
# Cytochrome P450 1B1 = Cytochrome P450 1B1 (Homo sapiens, UniProt Q16678); test: Activity of human CYP1B1 assessed as compound formation treated with 2 and 20 uM brivanib for 20 mins by LC/MS analysis in presence of NADPH; format: ADME
# Cytochrome P450 3A4 = Cytochrome P450 3A4 (Homo sapiens, UniProt P08684); test: Activity of human CYP3A4 assessed as compound formation treated with 2 and 20 uM brivanib for 20 mins by LC/MS analysis in presence of NADPH; format: ADME
# Liver microsome [12] = test: Drug level in human liver microsomes treated with 2 and 20 uM brivanib for 30 mins by LC/MS analysis in presence of 10 uM CYP2C9 inhibitor sulfaphenazole; format: ADME; conditions: 0.5 h
# Liver microsome [13] = test: Drug level in human liver microsomes treated with 2 and 20 uM brivanib for 30 mins by LC/MS analysis in presence of 1 uM CYP2D6 inhibitor quinidine; format: ADME; conditions: 0.5 h
# Liver microsome [14] = test: Drug level in human liver microsomes treated with 2 and 20 uM brivanib for 30 mins by LC/MS analysis in presence of 50 uM CYP2E1 inhibitor diethyldithiocarbamate; format: ADME; conditions: 0.5 h
# Liver cytosol [15] = test: Drug level in human liver cytosol treated with 2 uM [14C](R)-1-(4-(4-fluoro-2-(hydroxymethyl)-1H-indol-5-yloxy)-5-methylpyrrolo[1,2-f][1,2,4]triazin-6-yloxy)propan-2-ol for 60 mins by LC/MS analysis in presence of NADPH; format: ADME, tissue-based
# Liver cytosol [16] = test: Drug level in human liver cytosol treated with 2 uM [14C](R)-1-(4-(4-fluoro-2-(hydroxymethyl)-1H-indol-5-yloxy)-5-methylpyrrolo[1,2-f][1,2,4]triazin-6-yloxy)propan-2-ol for 60 mins by LC/MS analysis; format: ADME, tissue-based
# Liver cytosol [17] = test: Drug level in human liver cytosol treated with 2 uM [14C](R)-4-fluoro-5-(6-(2-hydroxypropoxy)-5-methylpyrrolo[1,2-f][1,2,4]triazin-4-yloxy)-1H-indole-2-carboxylic acid for 60 mins by LC/MS analysis in presence of PAPS; format: ADME, tissue-based
# [18] = substrate: Cc1cc2c(F)c(Oc3ncnn4cc(OC[C@@H](C)O)c(C)c34)ccc2[nH]1; test: Activity of human CYP1A2 assessed as enzyme-mediated (R)-1-(4-(4-fluoro-2-(hydroxymethyl)-1H-indol-5-yloxy)-5-methylpyrrolo[1,2-f][1,2,4]triazin-6-yloxy)propan-2-ol formation in presence of NADPH; format: ADME
# Sequence of Cytochrome P450 2D6 (P10635 whole entry): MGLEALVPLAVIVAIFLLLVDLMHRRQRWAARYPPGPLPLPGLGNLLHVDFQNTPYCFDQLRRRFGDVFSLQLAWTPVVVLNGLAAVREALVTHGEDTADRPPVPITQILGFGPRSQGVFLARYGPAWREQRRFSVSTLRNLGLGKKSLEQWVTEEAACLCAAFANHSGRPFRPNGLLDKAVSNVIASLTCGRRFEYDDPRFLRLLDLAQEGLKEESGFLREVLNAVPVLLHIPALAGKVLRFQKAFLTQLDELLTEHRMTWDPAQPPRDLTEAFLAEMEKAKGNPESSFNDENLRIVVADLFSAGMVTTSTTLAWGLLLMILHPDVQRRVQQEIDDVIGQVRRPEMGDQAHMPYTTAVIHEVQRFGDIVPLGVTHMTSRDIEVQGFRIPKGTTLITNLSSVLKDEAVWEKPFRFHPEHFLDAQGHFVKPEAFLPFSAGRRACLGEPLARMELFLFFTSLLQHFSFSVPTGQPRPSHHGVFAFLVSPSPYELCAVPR
# Sequence of Cytochrome P450 1B1 (Q16678 whole entry): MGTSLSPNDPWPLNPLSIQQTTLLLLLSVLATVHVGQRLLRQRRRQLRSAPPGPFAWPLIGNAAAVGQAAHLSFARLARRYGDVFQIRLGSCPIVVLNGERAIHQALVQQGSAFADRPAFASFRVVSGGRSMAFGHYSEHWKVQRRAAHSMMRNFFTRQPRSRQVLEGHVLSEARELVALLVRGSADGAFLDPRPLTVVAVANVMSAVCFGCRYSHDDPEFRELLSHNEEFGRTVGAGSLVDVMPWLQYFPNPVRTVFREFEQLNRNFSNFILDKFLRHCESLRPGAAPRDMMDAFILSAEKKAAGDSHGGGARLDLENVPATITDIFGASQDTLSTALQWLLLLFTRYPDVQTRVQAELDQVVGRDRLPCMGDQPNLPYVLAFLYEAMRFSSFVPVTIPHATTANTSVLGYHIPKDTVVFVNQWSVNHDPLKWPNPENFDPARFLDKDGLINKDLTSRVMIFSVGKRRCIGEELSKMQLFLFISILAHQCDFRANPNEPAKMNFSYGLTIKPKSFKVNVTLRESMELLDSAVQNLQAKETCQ
# Sequence of Cytochrome P450 3A5 (P20815 whole entry): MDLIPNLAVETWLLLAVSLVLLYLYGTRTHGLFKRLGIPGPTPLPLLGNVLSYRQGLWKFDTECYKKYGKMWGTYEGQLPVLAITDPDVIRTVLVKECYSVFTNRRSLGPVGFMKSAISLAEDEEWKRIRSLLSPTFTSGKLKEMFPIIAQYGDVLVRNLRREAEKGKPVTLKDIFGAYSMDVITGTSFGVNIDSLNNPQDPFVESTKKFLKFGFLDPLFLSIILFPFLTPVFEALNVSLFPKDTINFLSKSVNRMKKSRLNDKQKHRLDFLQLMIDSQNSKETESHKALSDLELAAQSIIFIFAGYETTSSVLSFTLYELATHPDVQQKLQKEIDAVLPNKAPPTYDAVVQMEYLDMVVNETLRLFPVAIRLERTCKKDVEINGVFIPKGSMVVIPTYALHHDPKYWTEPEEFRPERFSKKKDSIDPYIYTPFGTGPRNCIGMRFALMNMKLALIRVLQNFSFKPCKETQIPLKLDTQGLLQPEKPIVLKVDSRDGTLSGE
# Sequence of Cytochrome P450 2C9 (P11712 whole entry): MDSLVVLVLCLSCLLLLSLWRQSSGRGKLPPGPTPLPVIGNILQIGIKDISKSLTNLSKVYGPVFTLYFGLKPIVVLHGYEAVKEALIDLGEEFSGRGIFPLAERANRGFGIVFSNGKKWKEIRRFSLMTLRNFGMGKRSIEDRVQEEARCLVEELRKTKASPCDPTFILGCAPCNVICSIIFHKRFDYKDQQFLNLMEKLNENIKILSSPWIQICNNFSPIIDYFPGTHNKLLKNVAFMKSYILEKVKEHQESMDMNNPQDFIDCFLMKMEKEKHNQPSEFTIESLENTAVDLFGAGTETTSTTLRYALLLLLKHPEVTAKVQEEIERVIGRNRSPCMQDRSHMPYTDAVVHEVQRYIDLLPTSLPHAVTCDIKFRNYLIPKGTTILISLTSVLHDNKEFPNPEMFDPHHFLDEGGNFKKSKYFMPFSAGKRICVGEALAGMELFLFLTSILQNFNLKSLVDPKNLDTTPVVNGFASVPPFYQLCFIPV
# Sequence of Cytochrome P450 1A1 (P04798 whole entry): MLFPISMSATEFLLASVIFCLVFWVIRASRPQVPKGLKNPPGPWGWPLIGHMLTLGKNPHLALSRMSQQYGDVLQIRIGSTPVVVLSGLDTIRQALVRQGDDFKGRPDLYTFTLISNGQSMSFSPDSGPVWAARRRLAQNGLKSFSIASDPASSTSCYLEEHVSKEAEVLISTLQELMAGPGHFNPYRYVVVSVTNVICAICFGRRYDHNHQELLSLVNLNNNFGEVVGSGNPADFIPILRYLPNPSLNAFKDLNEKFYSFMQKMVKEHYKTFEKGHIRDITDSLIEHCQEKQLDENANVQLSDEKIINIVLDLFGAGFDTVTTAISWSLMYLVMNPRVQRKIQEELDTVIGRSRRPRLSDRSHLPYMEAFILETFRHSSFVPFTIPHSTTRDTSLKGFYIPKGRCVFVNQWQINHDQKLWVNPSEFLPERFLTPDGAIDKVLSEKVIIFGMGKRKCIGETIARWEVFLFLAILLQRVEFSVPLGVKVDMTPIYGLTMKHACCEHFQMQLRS
# Sequence of Cytochrome P450 3A4 (P08684 whole entry): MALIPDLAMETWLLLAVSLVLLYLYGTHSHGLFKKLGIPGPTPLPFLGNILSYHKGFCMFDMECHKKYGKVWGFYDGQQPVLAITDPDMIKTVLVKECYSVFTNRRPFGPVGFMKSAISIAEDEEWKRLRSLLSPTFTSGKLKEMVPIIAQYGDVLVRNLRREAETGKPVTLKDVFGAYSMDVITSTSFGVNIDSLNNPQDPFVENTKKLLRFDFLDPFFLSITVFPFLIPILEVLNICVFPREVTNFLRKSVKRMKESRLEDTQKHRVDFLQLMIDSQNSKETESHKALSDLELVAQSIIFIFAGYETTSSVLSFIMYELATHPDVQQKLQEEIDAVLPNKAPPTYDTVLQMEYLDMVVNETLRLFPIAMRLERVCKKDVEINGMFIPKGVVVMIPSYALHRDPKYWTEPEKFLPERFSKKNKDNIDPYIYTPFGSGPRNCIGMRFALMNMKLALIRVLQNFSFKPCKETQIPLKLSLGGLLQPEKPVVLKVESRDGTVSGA
# Sequence of Cytochrome P450 2C19 (P33261 whole entry): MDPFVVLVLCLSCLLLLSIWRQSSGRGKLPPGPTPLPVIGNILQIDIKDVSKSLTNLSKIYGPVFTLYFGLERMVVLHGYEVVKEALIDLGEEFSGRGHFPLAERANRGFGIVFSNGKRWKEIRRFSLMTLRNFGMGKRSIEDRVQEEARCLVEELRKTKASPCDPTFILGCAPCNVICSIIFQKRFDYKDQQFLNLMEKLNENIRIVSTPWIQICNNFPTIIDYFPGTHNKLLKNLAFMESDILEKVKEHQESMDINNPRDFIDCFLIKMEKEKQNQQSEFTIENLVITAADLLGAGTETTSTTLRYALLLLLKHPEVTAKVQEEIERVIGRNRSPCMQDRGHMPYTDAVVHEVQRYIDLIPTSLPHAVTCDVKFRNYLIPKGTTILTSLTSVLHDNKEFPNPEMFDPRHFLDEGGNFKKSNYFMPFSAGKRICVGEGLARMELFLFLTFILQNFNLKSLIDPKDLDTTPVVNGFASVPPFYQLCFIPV
molecule,measurement,setting,value
Cc1cc2c(F)c(Oc3n[14cH]nn4cc(OC[C@@H](C)OS(=O)(=O)O)c(C)c34)ccc2[nH]1,Drug metabolism,Liver microsome [1],metabolite_detected
same,Drug metabolism,Liver microsome [2],metabolite_detected
same,Drug metabolism,Liver microsome [3],metabolite_not_detected
Cc1c(OC[C@@H](C)O)cn2n[14cH]nc(Oc3ccc4[nH]c(C(=O)O)cc4c3F)c12,Drug metabolism,Liver cytosol [4],metabolite_detected
same,Drug metabolism,Liver cytosol [5],metabolite_not_detected
Cc1c(OC[C@@H](C)OS(=O)(=O)O)cn2ncnc(Oc3ccc4[nH]c(CO)cc4c3F)c12,Drug metabolism,Liver cytosol [6],metabolite_detected
same,Drug metabolism,Liver microsome [7],metabolite_detected
CC(=O)COc1cn2ncnc(Oc3ccc4[nH]c(C)cc4c3F)c2c1C,Drug metabolism,Liver microsome [8],metabolite_detected
Cc1c(OC[C@@H](C)O)cn2ncnc(Oc3ccc4[nH]c(CO)cc4c3F)c12,Drug metabolism,Cytochrome P450 2D6,metabolite_detected
same,Drug metabolism,Cytochrome P450 3A5,metabolite_detected
same,Drug metabolism,Cytochrome P450 2C19,metabolite_detected
same,Drug metabolism,Cytochrome P450 2C8,metabolite_detected
same,Drug metabolism,Cytochrome P450 2A6,metabolite_detected
same,Drug metabolism,Cytochrome P450 2B6,metabolite_detected
same,Drug metabolism,Cytochrome P450 2C9,metabolite_detected
same,Drug metabolism,Liver microsome [9],metabolite_detected
same,Drug metabolism,Liver microsome [10],metabolite_detected
same,Drug metabolism,Liver microsome [11],metabolite_detected
same,Drug metabolism,Cytochrome P450 1A1,metabolite_detected
same,Drug metabolism,Cytochrome P450 1A2,metabolite_detected
same,Drug metabolism,Cytochrome P450 1B1,metabolite_detected
same,Drug metabolism,Cytochrome P450 3A4,metabolite_detected
same,Drug metabolism,Liver microsome [12],metabolite_detected
same,Drug metabolism,Liver microsome [13],metabolite_detected
same,Drug metabolism,Liver microsome [14],metabolite_detected
same,Drug metabolism,Liver microsome [8],metabolite_detected
Cc1c(OC[C@@H](C)O)cn2ncnc(Oc3ccc4[nH]c(C(=O)O)cc4c3F)c12,Drug metabolism,Liver microsome [8],metabolite_detected
same,Drug metabolism,Liver cytosol [15],metabolite_detected
same,Drug metabolism,Liver cytosol [16],metabolite_detected
Cc1c(OC[C@@H](C)OS(=O)(=O)O)cn2ncnc(Oc3ccc4[nH]c(C(=O)O)cc4c3F)c12,Drug metabolism,Liver cytosol [6],metabolite_detected
same,Drug metabolism,Liver cytosol [17],metabolite_detected
same,Drug metabolism,Liver microsome [7],metabolite_detected
B1,Km,[18],45 µM
same,Vmax,[18],1.39e-06 µmol/min
